Patent publication US10799477B2, “Pharmaceutical composition for preventing or treating LDL cholesterol-related diseases, containing ribosome-binding preparation” (PUSAN NATIONAL UNIVERSITY INDUSTRY UNIVERSITY, priority 2016, dated 2020)

What was measured:
LDLR [1] = test: LDLR immunohistochemistry in ileum and jejunum of mice fed DON; assay type: in vivo; details: 25 mg/kg DON oral feeding, after 24 hours, IHC, FIG. 12
Experimental: Further, additional animal studies were performed to determine whether ribosome-inactivation stress increases a level of LDLR expression in the small intestine. Six-week-old male B6C3F1 mice (C57B1/6J×C3H/HeJ) were purchased from Samtako Bio Korea (Osan, South Korea). Animal experiments were performed according to the animal test method as approved in the Laboratory Animal Care Committee (PNU-2010-0291). Vehicle or 25 mg/kg DON was administered to the mice via oral feeding. After 24 hours, immunohistochemistry (IHC) was performed on ileum and jejunum to measure LDLR expression levels. The results are illustrated in FIG. 12.

LDLR [2] = test: Protein level of LDLR in HCT-8 cells, Western blot; assay type: cell-based, human; details: whole cell lysates, FIG. 9
Experimental: Further, HCT-8 cells were treated with vehicle or 1000 ng/ml DON for the indicated time. Thereafter, protein levels of LDLR were measured using whole cell lysates via Western blots. Specifically, the cells were washed with phosphate buffer. Subsequently, the cells were dissolved in lysis buffer (1% [w/v] SDS, 1.0 mM sodium orthovanadate, and 10 mM Tris [pH 7.4]). The lysate was sonicated for 5 seconds. The lysate was quantitated using the BCA protein assay kit (Pierce, Rockford, Ill., USA). Subsequently, immunoblotting was carried out to confirm the level of the protein in the cells. The results are illustrated in FIG. 9.

HCT-8 cells = test: Lipid droplets in HCT-8 cells, Oil Red O staining; assay type: cell-based, human; details: 1000 mg/ml DON or 2 μM ANS, 24 h, FIG. 2
Experimental: To confirm the effect of ribosome inactivation on fat accumulation, enterocyte and hepatocyte exposed to ribosome inactivation stress using the ribosome-binding agent were stained with Oil Red O.
Specifically, HCT-8 cells and HepG2 cells were obtained from the American Type Culture Collection (ATCC Rockville, Md., USA). HCT-8 and HepG2 cells were treated with vehicle, […], or 2 μM anisomycin (ANS) for 24 h. […] The staining results of HCT-8 cells are illustrated in FIG. 2 and the staining results of HepG2 cells are illustrated in FIG. 3.

LDLR [3] = test: mRNA level of LDLR in HCT-8 cells, real-time RT-PCR; assay type: cell-based, human; details: HCT-8 cells, 100, 500, 1000 ng/ml DON or 500, 1000, 2000 nM ANS, 2 hours, dose dependent, FIG. 10
Experimental: Further, HCT-8 cells were treated with vehicle or 1000 ng/ml DON for the indicated time. In these treated cells, an mRNA level of LDLR was measured using real-time RT-PCR. Specifically, RNA was extracted using RiboEX (GeneAll Biotechnology, Seoul, Korea). Subsequently, the RNA (100 ng) from each sample was transcribed into cDNA using Prime Moloney murine leukemia virus reverse transcriptase (Genetbio, Nonsan, South Korea). The cDNA was then amplified using n-Taq DNA polymerase (Enzynomics, Seoul, South Korea). The amplified cDNA was treated at 95° C. for 2 minutes. The cDNA was then treated for 30 seconds at 95° C., for 30 seconds at 58° C. and for 30 seconds at 72° C. at each of different cycles. The thus treated cDNA was amplified and the amplification thereof was confirmed by electrophoresis. FAM was used as a fluorescent reporter staining drug. FAM was conjugated to a 5′ terminal of a product of the amplified cDNA. The resulting product was subjected to real-time RT-PCR using an iCycler thermal cycler (Bio-Rad). […]
Additionally, to determine the effect of chemical ribosome inactivators (DON, ANS) at different doses on the LDLR expression level, HCT-8 cells were treated with vehicle, 0, 100, 500, 1000 ng/ml DON or 0, 500, 1000, 2000 nM ANS for 2 hours. Then, mRNA levels of LDLR in the cells were measured using real-time RT-PCR. […] The mRNA level of the LDLR of the cells was measured. […]

LDLR [4] = test: mRNA level of LDLR in HepG2 cells, real-time RT-PCR; assay type: cell-based, human; details: HepG2 cells, 100, 500, 1000 ng/ml DON or 500, 1000, 2000 nM ANS, 1 hour, dose dependent, FIG. 11

Row | Structure (SMILES) | level of LDLR expression in the mouse small intestine (villus epithelium of ileum and jejunum) (LDLR [1]) | protein levels of LDLR (LDLR [2]) | fat accumulation in HCT-8 cells (HCT-8 cells) | mRNA level of LDLR (LDLR [3]) | mRNA level of LDLR (LDLR [4])
1 | CC1=C[C@H]2O[C@@H]3[C@H](O)C[C@](C)([C@@]2(CO)[C@H](O)C1=O)[C@]31CO1 [DON, deoxynivalenol] | increase | increases | dose-dependently increased | increases | increases
2 | COc1ccc(C[C@H]2NC[C@H](O)[C@H]2OC(C)=O)cc1 [ANS, anisomycin] | – | increases | dose-dependently increased | increases | increases
